According to patent publication US20260284014A1, “3,5-DIAMINOTRIAZOLE DERIVATIVES AND USES THEREOF FOR TREATING OCULAR DISEASES” (CENTRE NATIONAL DE LA RECHERCHE SCIENTIFIQUE, priority 2023, published 2026):
Entries after “also recorded” stand apart in the source; their conditions may differ.

Assays:
ARPE-19 cells = assay: Cell viability (XTT assay); format: cell-based; conditions: Homo sapiens, 48 h, read-out: A. Safety IC50 on ARPE-19 cells
Method: ARPE-19 cells were incubated in a 96-well plate with different effectors for 48 hours. Fifty microliters of sodium 3′-[1-phenylaminocarbonyl)-3,4-tetrazolium]-bis(4-methoxy-6-nitro) benzene sulfonic acid hydrate (XTT) reagent was added to each well. The test is based on the cleavage of the yellow tetrazolium salt XTT to form an orange formazan dye by metabolically active cells. This bio-reduction occurs in viable cells only and is associated with NAD(P)H production through glycolysis. Therefore, the amount of formazan dye measured at 490 nm, correlates directly with the number of metabolically active cells reflecting cell proliferation, viability, and cytotoxicity. Each assay was performed in quadruplicate.
(§1) All compounds were evaluated in different experiments. Results are represented as the mean of three independent experiments. A. ARPE-19 cells were treated with dose response of compound for 48 h. Values are reported as IC50 measured with the XTT assay. B and C. ARPE-19 cells were treated with 5 μM (B) or 1 μM (C) compound then with 200 μM H2O2 for 2 h. ROS were analyzed by cytometry. […] As illustrated in FIG. 1A. D. ARPE-19 cells were treated with 2.5 μM compound for 48 h and the level of CXCL1 mRNA was evaluated by qPCR. […] As illustrated in FIG. 1B. E. TIME cells were pre-treated with 2.5 μM compound for 1 h then stimulated with 100 ng/ml CXCL8 for 15 min p-ERK levels were analyzed by immunoblotting. HSP90 served as loading control. […] As illustrated in FIG. 1C.

ROS = ROS labeling by cytometry after H2O2; format: cell-based; conditions: Homo sapiens, ARPE-19; for inhibition at 1 µM: 1 μM compound then 200 μM H2O2 for 2 h, read-out: C. ROS inhibition 1 μM - ARPE-19 cells; for inhibition at 5 µM: 5 μM compound then 200 μM H2O2 for 2 h, read-out: B. ROS inhibition 5 μM - ARPE-19 cells
Method: ARPE-19 cells were treated with MCK349 30 minutes then with 200 μM H2O2 for 2 h. 10 μM DCF-DA (2′,7′-Dichlorofluorescein diacetate) were added on cell media for 30 min. Cells were rinsed then detached (trypsin) and resuspended in PBS 0.5% BSA and 2 mM EDTA. The cells are analyzed by cytometry (ROS labeled with DCFDA-FITC).
as §1

ERK activation (p-ERK) = assay: p-ERK immunoblotting after CXCL8 stimulation; format: cell-based; conditions: 2.5 μM compound 1 h then 100 ng/ml CXCL8 for 15 min; read-out: E. p-ERK inhibition - TIME
Method: Cells were lysed in buffer containing 3% SDS, 10% glycerol and 0.825 mM Na2HPO4. 30 to 50 μg of proteins separated on 10% SDS-PAGE, transferred onto a PVDF membrane and then exposed to the appropriate antibodies. Proteins were visualized with the ECL system using horseradish peroxidase-conjugated anti-rabbit or anti-mouse antibodies.
as §1

[1] = test system: ocular (retinal) neo-angiogenesis; assay: Hypoxia-induced retinal neo-angiogenesis in zebrafish; format: in vivo; conditions: hypoxia 5% oxygen 72 h, 0.25, 0.5, or 1 μM
Method: All animal experiments were approved by the Experimental Animal Ethical Committee. Transgenic zebrafish embryos (fli: EGFP, blood vessels marked in GFP) were raised at 28° C. under standard experimental conditions. Zebrafish embryos at the age of 24 hpf were incubated in aquarium water containing 0.2 mmol/L 1-phenyl-2-thio-urea (PTU, Sigma). At 48-hpf, zebrafish embryos were placed for 72 h in normoxia (Nx) or hypoxia 5% oxygen […], in the presence of treatment. Retinal neo-angiogenesis was analyzed by fluorescent confocal microscope and quantified by ImageJ.

SMILES	IC50 (ARPE-19 cells) [µM]	inhibition at 1 µM (ROS) [%]	inhibition at 5 µM (ROS) [%]	inhibition at 2.5 µM (ERK activation (p-ERK)) [%]	ocular (retinal) neo-angiogenesis in zebrafish [1]
CC(C)c1ccc(Cn2nc(Nc3ccccc3)nc2N)cc1 [MCK263, 1-(4-isopropylbenzyl)-N^3-phenyl-1H-1,2,4-triazole-3,5-diamine]	> 25	≥ 50	≥ 50	≥ 50	inhibit ocular (retinal) neo-angiogenesis; also recorded: inhibit ocular neoangiogenesis
Nc1nc(Nc2ccccc2)nn1CC(=O)c1ccccc1 [MCK299, 2-(5-amino-3-(phenylamino)-1H-1,2,4-triazol-1-yl)-1-phenylethan-1-one]	> 25	< 50	< 50	≥ 50	
Nc1nc(Nc2ccc(Br)cc2)nn1Cc1cccc(Br)c1 [MCK346, 1-(3-bromobenzyl)-N^3-(4-bromophenyl)-1H-1,2,4-triazole-3,5-diamine]	> 25	≥ 50	≥ 50	≥ 50	
Nc1nc(Nc2ccccn2)nn1Cc1cccc(Br)c1 [MCK276, 1-(3-bromobenzyl)-N^3-(pyridin-2-yl)-1H-1,2,4-triazole-3,5-diamine]	> 25	< 50	< 50	≥ 50	
Cc1ccccc1Cn1nc(Nc2ccccc2)nc1N [MCK250, 1-(2-methylbenzyl)-N^3-phenyl-1H-1,2,4-triazole-3,5-diamine]	> 25	≥ 50	≥ 50	< 50	
Nc1nc(Nc2ccccc2)n(CCc2ccccc2)n1 [MCK300, 1-phenethyl-N^5-phenyl-1H-1,2,4-triazole-3,5-diamine]	> 25	< 50	< 50	≥ 50	
Nc1nc(Nc2ccccn2)nn1Cc1cccc([N+](=O)[O-])c1 [MCK292, 1-(3-nitrobenzyl)-N^3-(pyridin-2-yl)-1H-1,2,4-triazole-3,5-diamine]	> 25	< 50	< 50	≥ 50	
Nc1nc(Nc2ccccn2)nn1Cc1cccc(C(F)(F)F)c1 [MCK282, N^3-(pyridin-2-yl)-1-(3-(trifluoromethyl)benzyl)-1H-1,2,4-triazole-3,5-diamine]	> 25	< 50	< 50	≥ 50	
Nc1nc(Nc2ccccn2)nn1Cc1c(Cl)cccc1Cl [MCK278, 1-(2,6-dichlorobenzyl)-N^3-(pyridin-2-yl)-1H-1,2,4-triazole-3,5-diamine]	> 25	< 50	< 50	≥ 50	
CC(C)c1ccc(Cn2nc(Nc3ccc(Cl)c(Cl)c3)nc2N)cc1 [MCK350, N^3-(3,4-dichlorophenyl)-1-(4-isopropylbenzyl)-1H-1,2,4-triazole-3,5-diamine]	> 25	≥ 50	≥ 50	≥ 50	
Nc1nc(Nc2ccccc2)nn1Cc1ccccc1[N+](=O)[O-] [MCK297, 1-(2-nitrobenzyl)-N^3-phenyl-1H-1,2,4-triazole-3,5-diamine]	> 25	< 50	< 50	≥ 50	
Nc1nc(Nc2ccccc2)n(Cc2cccc(C(F)(F)F)c2)n1 [MCK338, N^5-phenyl-1-(3-(trifluoromethyl)benzyl)-1H-1,2,4-triazole-3,5-diamine]	> 25	≥ 50	≥ 50	< 50	
Nc1nc(Nc2ccc(Cl)cc2)n(Cc2cccc(Br)c2)n1 [MCK343, 1-(3-bromobenzyl)-N^5-(4-chlorophenyl)-1H-1,2,4-triazole-3,5-diamine]	> 25	< 50	≥ 50	≥ 50	
Cc1ccc(Cn2nc(Nc3ccccc3)nc2N)cc1 [MCK271, 1-(4-methylbenzyl)-N^3-phenyl-1H-1,2,4-triazole-3,5-diamine]	> 25	≥ 50	≥ 50	≥ 50	
Nc1nc(Nc2ccccn2)nn1Cc1ccccc1[N+](=O)[O-] [MCK289, 1-(2-nitrobenzyl)-N^3-(pyridin-2-yl)-1H-1,2,4-triazole-3,5-diamine]	> 25	≥ 50	≥ 50	< 50	
Nc1nc(Nc2ccccc2)n(Cc2c(F)cccc2F)n1 [MCK257, 1-(2,6-difluorobenzyl)-N^5-phenyl-1H-1,2,4-triazole-3,5-diamine]	> 25	≥ 50	≥ 50	≥ 50	
Nc1nc(Nc2ccccn2)nn1Cc1ccc(F)cc1F [MCK284, 1-(2,4-difluorobenzyl)-N^3-(pyridin-2-yl)-1H-1,2,4-triazole-3,5-diamine]	> 25	< 50	< 50	≥ 50	
Nc1nc(Nc2ccc(Cl)cc2)nn1Cc1cccc(Br)c1 [MCK344, 1-(3-bromobenzyl)-N^3-(4-chlorophenyl)-1H-1,2,4-triazole-3,5-diamine]	> 25	≥ 50	≥ 50	≥ 50	inhibit ocular (retinal) neo-angiogenesis; also recorded: inhibit ocular neoangiogenesis
Nc1nc(Nc2ccccn2)nn1Cc1c(F)cccc1F [MCK259, 1-(2,6-difluorobenzyl)-N^3-(pyridin-2-yl)-1H-1,2,4-triazole-3,5-diamine]	> 25	< 50	< 50	≥ 50	
